Laboratory results reported in ChEMBL document CHEMBL3217680, “Synthesis and antiproliferative activity of some 3-(pyrid-2-yl)-pyrazolines” (Medchemcomm, 2013).
pIC50: −log10 of the molar value. Active and inactive are the calls of the source. The calls are words filed in the database; no cut-off is given here.

Tests used:
MDA-MB-231 = experiment: Antiproliferative activity against human MDA-MB-231 cells by MTS assay; assay type: functional, cell-based
HT-29 [1] = experiment: Antiproliferative activity against human HT-29 cells by MTS assay; assay type: functional, cell-based
HT-29 [2] = experiment: Inhibition of microtubule formation in human HT-29 cells at 100 nM using Dm1a tubulin antibodies by confocal microscopy; assay type: cell-based

| SMILES | pIC50 (MDA-MB-231) | pIC50 (HT-29 [1]) | inhibition (HT-29 [2]) |
| --- | --- | --- | --- |
| CN1N=C(c2ccccn2)CC1c1ccccc1 (stereo not given) | 3.87 | 3.94 | – |
| CC(=O)N1N=C(c2ccccn2)CC1c1ccccc1 (stereo not given) | 3.53 | 3.79 | – |
| O=C(c1ccccc1)N1N=C(c2ccccn2)C[C@H]1c1ccccc1 | < 3.30 | < 3.30 | – |
| CNC(=S)N1N=C(c2ccccn2)C[C@H]1c1ccccc1 | 4.68 | 4.59 | – |
| COc1cc(/C=C/C(=O)c2ccccn2)cc(OC)c1OC | 5.01 | 5.02 | – |
| c1ccc(C2CC(c3ccccn3)=NN2c2ccccc2)cc1 (stereo not given) | 4.22 | 4.27 | – |
| COc1cc2c(c(OC)c1OC)-c1ccc(OC)c(=O)cc1[C@@H](NC(C)=O)CC2 [COLCHICINE] | 8.10 | 8.10 | Active |
